Measured values taken from ChEMBL document CHEMBL1201862, “PubChem BioAssay data set” (2004).
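Method: 48-hour compound exposure of cells in 96-well plates, five concentrations, linear interpolation of endpoints. GI50: concentration for 50% inhibition of growth.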 The source made the active and inactive calls. No stated cut-off is given here; in the data, active = GI50 up to about 1.1 µM and inactive = higher.

Assays:
Assay in all cases: DTP human tumour cell line panel, 48 h
[1] = test system: HCT-116
[2] = test system: SN12C
[3] = test system: M14
[4] = test system: UO-31
[5] = test system: HOP-62
[6] = test system: NCI-H460
[7] = test system: SW-620
[8] = test system: NCI-H522
[9] = test system: CCRF-CEM
[10] = test system: SK-MEL-2
[11] = test system: PC-3
[12] = test system: SK-MEL-5
[13] = test system: SNB-75
[14] = test system: BT-549
[15] = test system: A498
[16] = test system: NCI-H23
[17] = test system: K562
[18] = test system: MDA-MB-435
[19] = test system: Hs-578T
[20] = test system: OVCAR-8

Measured: GI50

CCCn1c(SC)nc(COC(=O)NC)c1COC(=O)NC
inactive: [1] > 100 µM | [2] > 100 µM | [3] > 100 µM | [4] > 100 µM | [5] > 100 µM | [6] > 100 µM | [7] > 100 µM | [8] > 100 µM | [9] > 100 µM | [10] > 100 µM | [11] > 100 µM | [12] > 100 µM | [13] > 100 µM | [14] > 100 µM | [15] 64 µM | [16] > 100 µM | [17] > 100 µM | [18] > 100 µM | [19] > 100 µM | [20] > 100 µM

O=C(O)CCc1c2ccc(=O)c(O)c-2oc2c(O)c(O)ccc12
inactive: [1] 18.9 µM | [2] 15.9 µM | [3] > 100 µM | [4] > 100 µM | [5] > 100 µM | [6] > 100 µM | [7] 22.2 µM | [8] 27.4 µM | [9] 2.29 µM | [10] > 100 µM | [11] > 100 µM | [12] > 100 µM | [13] 24.9 µM | [14] 87.5 µM | [15] 46.7 µM | [16] 61.4 µM | [17] 24 µM | [18] 17.1 µM | [19] 14.2 µM | [20] 54.6 µM
